From the supplement of paper PMC10307832

Key:
Test in all cases: relative viability (nuclei count vs DMSO), 5 days (fraction); higher = more cells survive
[1] = compound: C1COCCN1C2=NC(=NC3=C2OC4=C3C=CC=N4)C5=CC(=CC=C5)NC(=O)C6=CN=C(C=C6)N + CCNC(=O)c1noc(-c2cc(C(C)C)c(O)cc2O)c1-c1ccc(CN2CCOCC2)cc1 [Luminespib] (partner 0.01 µM)
In short: (§1)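 Relative viability equals treated-well nuclei counts divided by vehicle-well nuclei counts. Counts came from 4× images of lung cancer cell lines grown in 1536-well plates for 5 days after pin-tool dosing on the day after seeding. Dosing used one drug alone or a fixed anchor-drug dose plus five library-drug doses (not always all listed) in √10 steps, and values are medians of duplicate plates.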

[2] = compound: C1COCCN1C2=NC(=NC3=C2OC4=C3C=CC=N4)C5=CC(=CC=C5)NC(=O)C6=CN=C(C=C6)N + CS(=O)(=O)CCNCc1ccc(-c2ccc3ncnc(Nc4ccc(OCc5cccc(F)c5)c(Cl)c4)c3c2)o1 [Lapatinib] (partner 2 µM)
In short: as §1

[3] = compound: C1COCCN1C2=NC(=NC3=C2OC4=C3C=CC=N4)C5=CC(=CC=C5)NC(=O)C6=CN=C(C=C6)N + NC(=O)Nc1cc(-c2cccc(F)c2)sc1C(=O)N[C@H]1CCCNC1 [AZD7762] (partner 0.2 µM)
In short: as §1

Entinostat + Pictilisib = compound: Nc1ccccc1NC(=O)c1ccc(CNC(=O)OCc2cccnc2)cc1 [Entinostat] + CS(=O)(=O)N1CCN(Cc2cc3nc(-c4cccc5[nH]ncc45)nc(N4CCOCC4)c3s2)CC1 [Pictilisib] (partner 1 µM)
In short: as §1

Cell Line | relative viability ([1]; first compound 0.02 µM) | relative viability ([1]; first compound 0.06325 µM) | relative viability ([1]; first compound 0.2 µM) | relative viability ([1]; first compound 0.6325 µM) | relative viability ([1]; first compound 2 µM) | relative viability ([2]; first compound 0.02 µM) | relative viability ([2]; first compound 0.06325 µM) | relative viability ([2]; first compound 0.2 µM) | relative viability ([2]; first compound 0.6325 µM) | relative viability ([2]; first compound 2 µM) | relative viability ([3]; first compound 0.02 µM) | relative viability ([3]; first compound 0.06325 µM) | relative viability ([3]; first compound 0.2 µM) | relative viability ([3]; first compound 0.6325 µM) | relative viability ([3]; first compound 2 µM) | relative viability (Entinostat + Pictilisib; first compound 0.02 µM) | relative viability (Entinostat + Pictilisib; first compound 0.06325 µM) | relative viability (Entinostat + Pictilisib; first compound 0.2 µM) | relative viability (Entinostat + Pictilisib; first compound 0.6325 µM) | relative viability (Entinostat + Pictilisib; first compound 2 µM)
CAL-12T | 0.465 | 0.602 | 0.21 | 0.418 | 0.267 | 0.663 | 0.701 | 0.632 | 0.604 | 0.472 | 0.632 | 0.617 | 0.632 | 0.673 | 0.49 | 0.537 | 0.546 | 0.544 | 0.303 | 0.323
NCI-H1437 | 0.859 | 1.21 | 1.04 | 1.08 | 0.537 | 0.801 | 0.952 | 0.746 | 0.794 | 0.327 | 1.1 | 1.07 | 1.12 | 1.13 | 0.91 | 0.415 | 0.255 | 0.182 | 0.147 | 0.112
PC-14 | 0.184 | 0.189 | 0.13 | 0.151 | 0.148 | 0.308 | 0.391 | 0.307 | 0.283 | 0.249 | 0.349 | 0.352 | 0.242 | 0.332 | 0.23 | 0.602 | 0.516 | 0.5 | 0.189 | 0.0672
LK-2 | 0.193 | 0.196 | 0.201 | 0.169 | 0.175 | 1.14 | 1.11 | 0.828 | 0.776 | 0.563 | 0.427 | 0.406 | 0.378 | 0.416 | 0.221 | 0.62 | 0.486 | 0.529 | 0.518 | 0.285
NCI-H1651 | 0.949 | 0.992 | 0.999 | 0.856 | 0.557 | 0.975 | 0.839 | 0.786 | 0.84 | 0.614 | 0.507 | 0.563 | 0.476 | 0.461 | 0.36 | 0.624 | 0.674 | 0.572 | 0.452 | 0.365
LC-2-ad | 0.857 | 1.08 | 1.02 | 1.06 | 0.872 | 0.948 | 0.939 | 0.968 | 1.03 | 0.537 | 0.939 | 0.9 | 0.831 | 0.805 | 0.585 | 0.44 | 0.5 | 0.431 | 0.126 | 0.124
